Measurements taken from the supplement of paper PMC10307832.

Assays:
Assay in all cases: relative viability (nuclei count vs DMSO), 5 days (fraction); higher = more cells survive
Trametinib + Navitoclax = compound: CC(=O)Nc1cccc(-n2c(=O)n(C3CC3)c(=O)c3c(Nc4ccc(I)cc4F)n(C)c(=O)c(C)c32)c1 [Trametinib] + CC1(C)CCC(c2ccc(Cl)cc2)=C(CN2CCN(c3ccc(C(=O)NS(=O)(=O)c4ccc(N[C@H](CCN5CCOCC5)CSc5ccccc5)c(S(=O)(=O)C(F)(F)F)c4)cc3)CC2)C1 [Navitoclax] (partner 0.5 µM)
Procedure, shortened: (§1)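 Lung cancer cell lines, seeded in 1536-well plates, were treated the following day by pin tool with a single drug or with five library-drug doses (not always all listed) in √10 steps on top of a fixed anchor-drug dose. Cells were fixed and nuclei stained in one step after 5 days, and nuclei were counted. Relative viability is the nuclei count for treated wells divided by that for vehicle wells, reported as medians of duplicate plates.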

Trametinib + Luminespib = compound: CC(=O)Nc1cccc(-n2c(=O)n(C3CC3)c(=O)c3c(Nc4ccc(I)cc4F)n(C)c(=O)c(C)c32)c1 [Trametinib] + CCNC(=O)c1noc(-c2cc(C(C)C)c(O)cc2O)c1-c1ccc(CN2CCOCC2)cc1 [Luminespib] (partner 0.01 µM)
Procedure, shortened: as §1

Trametinib + Tozasertib = compound: CC(=O)Nc1cccc(-n2c(=O)n(C3CC3)c(=O)c3c(Nc4ccc(I)cc4F)n(C)c(=O)c(C)c32)c1 [Trametinib] + Cc1cc(Nc2cc(N3CCN(C)CC3)nc(Sc3ccc(NC(=O)C4CC4)cc3)n2)n[nH]1 [Tozasertib] (partner 0.1 µM)
Procedure, shortened: as §1

[1] = compound: CN1C=C(C2=CC=CC=C21)/C=C\3/C4=C(C=CC=N4)NC3=O + C[C@]1(O)C[C@@H](c2nc(-c3ccc4ccc(-c5ccccc5)nc4c3)c3c(N)nccn32)C1 [Linsitinib] (partner 1 µM)
Procedure, shortened: as §1

Row | Cell Line | relative viability (Trametinib + Navitoclax; first compound 0.0025 µM) | relative viability (Trametinib + Navitoclax; first compound 0.007906 µM) | relative viability (Trametinib + Navitoclax; first compound 0.025 µM) | relative viability (Trametinib + Navitoclax; first compound 0.07906 µM) | relative viability (Trametinib + Navitoclax; first compound 0.25 µM) | relative viability (Trametinib + Luminespib; first compound 0.0025 µM) | relative viability (Trametinib + Luminespib; first compound 0.007906 µM) | relative viability (Trametinib + Luminespib; first compound 0.025 µM) | relative viability (Trametinib + Luminespib; first compound 0.07906 µM) | relative viability (Trametinib + Luminespib; first compound 0.25 µM) | relative viability (Trametinib + Tozasertib; first compound 0.0025 µM) | relative viability (Trametinib + Tozasertib; first compound 0.007906 µM) | relative viability (Trametinib + Tozasertib; first compound 0.025 µM) | relative viability (Trametinib + Tozasertib; first compound 0.07906 µM) | relative viability (Trametinib + Tozasertib; first compound 0.25 µM) | relative viability ([1]; first compound 0.02 µM) | relative viability ([1]; first compound 0.06325 µM) | relative viability ([1]; first compound 0.2 µM) | relative viability ([1]; first compound 0.6325 µM) | relative viability ([1]; first compound 2 µM)
1 | ChaGo-K-1 | 1.07 | 0.803 | 1.08 | 0.508 | 0.556 | 0.729 | 0.515 | 0.511 | 0.646 | 0.464 | 0.232 | 0.223 | 0.214 | 0.201 | 0.191 |  |  |  |  | 
2 | EBC-1 | 0.274 | 0.218 | 0.157 | 0.141 | 0.179 |  |  |  |  |  |  |  |  |  |  | 1.03 | 0.873 | 0.723 | 0.922 | 0.971
3 | EKVX | 0.728 | 0.627 | 0.37 | 0.376 | 0.371 | 0.864 | 0.767 | 0.331 | 0.446 | 0.351 | 0.387 | 0.397 | 0.335 | 0.227 | 0.26 | 0.911 | 0.926 | 0.921 | 0.729 | 0.883
4 | EMC-BAC-2 | 1.07 | 0.956 | 1.06 | 0.891 | 0.817 | 1.18 | 1.04 | 1.04 | 0.95 | 0.684 | 0.369 | 0.354 | 0.41 | 0.457 | 0.328 | 0.787 | 0.826 | 0.806 | 0.852 | 0.867
5 | EPLC-272H | 0.962 | 0.914 | 0.455 | 0.709 | 0.359 | 0.222 | 0.22 | 0.251 | 0.129 | 0.117 | 0.207 | 0.203 | 0.212 | 0.149 | 0.266 | 1.54 | 1.12 |  | 1.31 | 1.23
6 | H3255 | 0.468 | 0.316 | 0.251 | 0.161 | 0.18 | 1.07 | 0.928 | 0.581 | 0.601 | 0.236 | 0.572 | 0.777 | 0.579 | 0.514 | 0.411 | 1.06 | 0.989 | 0.945 | 0.816 | 1.11
7 | HARA | 0.984 | 1.1 | 1.14 | 1.06 | 0.976 | 0.75 | 0.534 | 0.694 | 0.234 | 0.13 | 0.12 | 0.101 | 0.0849 | 0.108 | 0.0591 | 0.93 | 0.92 | 1.03 | 0.932 | 1.06
8 | HCC-15 | 0.505 | 0.336 | 0.243 | 0.247 | 0.189 | 0.313 | 0.186 | 0.157 | 0.165 | 0.192 | 0.345 | 0.234 | 0.161 | 0.148 | 0.15 | 0.907 | 0.841 | 0.933 | 0.853 | 0.976
9 | HCC-44 | 1.03 | 0.751 | 0.865 | 0.805 | 0.446 | 1.03 | 0.907 | 0.931 | 0.553 | 0.193 | 0.897 | 0.519 | 0.801 | 0.594 | 0.228 | 0.577 | 0.637 | 0.651 | 0.593 | 0.604
